What was measured:
Assay type in all cases: cell-based
[1] = tested on: Essential thrombocythemia cell line SET-2 cells (harboring endogenous JAK2 point mutation); test: SET-2 cell proliferation assay (CellTiter-Glo); conditions: Homo sapiens, 72 hours incubation, read-out: SET2 cell proli. IC50
[2] = tested on: T cell lymphoma Karpas-299 cell line (harboring endogenous NPM-ALK fusion gene); test: Karpas-299 cell proliferation assay (CellTiter-Glo); conditions: Homo sapiens, 72 hours incubation, read-out: Karpas 299 cell proli. IC50
[3] = tested on: Colorectal cell line KM12 (harboring endogenous TPM3-TRKA fusion gene); test: KM12 cell proliferation assay (CellTiter-Glo); conditions: Homo sapiens, 72 hours incubation, read-out: KM 12 cell prolif. IC50
Protocol: (§1) Colorectal cell lines KM 12 (harboring endogenous TPM3-TRKA fusion gene) cells were cultured in DMEM medium, supplemented with 10% fetal bovine serum and 100 U/mL of penicillin/streptomycin. 5000 cells were seeded in 384 well white plate for 24 hours before compounds treatment. Cell proliferation was measured using CellTiter-Glo luciferase-based ATP detection assay (Promega) following the manufactures's protocol after 72 hours incubation. IC50 determinations were performed using GraphPad Prism software (GraphPad, Inc., San Diego, Calif.).
as §1, with “Alternatively: Colorectal” for “Colorectal”, “line KM12” for “lines KM 12”, “penicillin/streptomycin. […]” for “penicillin/streptomycin.”

| SMILES | IC50 [2] [µM] | IC50 [1] [nM] | IC50 [3] [nM] |
| --- | --- | --- | --- |
| C[C@@H]1CNC(=O)c2cnn3ccc(nc23)N(C)Cc2cc(F)ccc2O1 [Example 94, (7R)-11-fluoro-7,14-dimethyl-6,7,13,14-tetrahydro-1,15-ethenopyrazolo[4,3-f][1,4,8,10]benzoxatriazacyclotridecin-4(5H)-one] | > 10 | > 10000 | 0.2 |
| CC(C)C1Nc2ccn3ncc(c3n2)C(=O)NCCOc2ccc(F)cc21 (stereo not drawn) [Example 67, 11-fluoro-13-(propan-2-yl)-6,7,13,14-tetrahydro-1,15-ethenopyrazolo[4,3-f][1,4,8,10]benzoxatriazacyclotridecin-4(5H)-one] | 1.2 | 1230 | 2.8 |
| CN1Cc2cc(F)ccc2OCC(O)CNC(=O)c2cnn3ccc1nc23 (stereo not drawn) [Example 96, 12-fluoro-7-hydroxy-15-methyl-5,6,7,8,14,15-hexahydro-4H-1,16-ethenopyrazolo[4,3-g][1,5,9,11]benzoxatriazacyclotetradecin-4-one] | 5 | 6000 | 0.6 |
| CN1Cc2cc(F)cnc2OCCNC(=O)c2cnn3ccc1nc23 [Example 61, 11-fluoro-14-methyl-6,7,13,14-tetrahydro-1,15-ethenopyrazolo[4,3-f]pyrido[3,2-1][1,4,8,10]oxatriazacyclotridecin-4(5H)-one] | 3.9 | 3750 | 0.6 |
| CC1Nc2ccn3ncc(c3n2)C(=O)NCCOc2ccc(Cl)cc21 (stereo not drawn) [Example 84, 11-chloro-13-methyl-6,7,13,14-tetrahydro-1,15-ethenopyrazolo[4,3-f][1,4,8,10]benzoxatriazacyclotridecin-4(5H)-one] | 4.2 | 3150 | 0.8 |
| NC(=O)C1Nc2ccn3ncc(c3n2)C(=O)NCCOc2ccc(F)cc21 (stereo not drawn) [Example 60, 11-fluoro-4-oxo-4,5,6,7,13,14-hexahydro-1,15-ethenopyrazolo[4,3-f][1,4,8,10]benzoxatriazacyclotridecine-13-carboxamide] |  |  | > 1000 |
| O=C1NCCOc2ccc(F)cc2CN(CCO)c2ccn3ncc1c3n2 [Example 47, 11-fluoro-14-(2-hydroxyethyl)-6,7,13,14-tetrahydro-1,15-ethenopyrazolo[4,3-f][1,4,8,10]benzoxatriazacyclotridecin-4(5H)-one] | > 10 | > 10000 | 31 |
| C[C@H]1CNC(=O)c2cnn3ccc(nc23)N(C)Cc2cc(F)ccc2O1 [Example 97, (7S)-11-fluoro-7,14-dimethyl-6,7,13,14-tetrahydro-1,15-ethenopyrazolo[4,3-f][1,4,8,10]benzoxatriazacyclotridecin-4(5H)-one] | 1.42 | 6500 | 0.3 |
| CC(C)N1Cc2cc(F)cnc2OCCNC(=O)c2cnn3ccc1nc23 [Example 62, 11-fluoro-14-(propan-2-yl)-6,7,13,14-tetrahydro-1,15-ethenopyrazolo[4,3-f]pyrido[3,2-1][1,4,8,10]oxatriazacyclotridecin-4(5H)-one] | 4 |  | 0.9 |
| CCCN1Cc2cc(F)ccc2OCCNC(=O)c2cnn3ccc1nc23 [Example 44, 11-fluoro-14-propyl-6,7,13,14-tetrahydro-1,15-ethenopyrazolo[4,3-f][1,4,8,10]benzoxatriazacyclotridecin-4(5H)-one] | 4.1 | 2030 | 9.9 |
| C[C@H]1Nc2ccn3ncc(c3n2)C(=O)NCCCOc2ccc(F)cc21 [Example 76-1, (14R)-12-fluoro-14-methyl-5,6,7,8,14,15-hexahydro-4H-1,16-ethenopyrazolo[4,3-g][1,5,9,11]benzoxatriazacyclotetradecin-4-one] | 3.8 | 1000 | 5.8 |
| O=C1NCCOc2ccc(F)cc2C(C2CC2)Nc2ccn3ncc1c3n2 (stereo not drawn) [Example 66, 13-cyclopropyl-11-fluoro-6,7,13,14-tetrahydro-1,15-ethenopyrazolo[4,3-f][1,4,8,10]benzoxatriazacyclotridecin-4(5H)-one] | 1.9 | 1540 | 17.5 |
| O=C1NCCOc2ccc(F)cc2CN(C2CC2)c2ccn3ncc1c3n2 [Example 46, 14-cyclopropyl-11-fluoro-6,7,13,14-tetrahydro-1,15-ethenopyrazolo[4,3-f][1,4,8,10]benzoxatriazacyclotridecin-4(5H)-one] | 7.1 | 7000 | 1.5 |
| CCC1Nc2ccn3ncc(c3n2)C(=O)NCCOc2ccc(F)cc21 (stereo not drawn) [Example 85, 13-ethyl-11-fluoro-6,7,13,14-tetrahydro-1,15-ethenopyrazolo[4,3-f][1,4,8,10]benzoxatriazacyclotridecin-4(5H)-one] | 1.08 | 928 | 0.9 |
| COC(=O)C1Nc2ccn3ncc(c3n2)C(=O)NCCOc2ccc(F)cc21 (stereo not drawn) [Example 59, methyl 11-fluoro-4-oxo-4,5,6,7,13,14-hexahydro-1,15-ethenopyrazolo[4,3-f][1,4,8,10]benzoxatriazacyclotridecine-13-carboxylate] |  |  | > 1000 |
| O=C1NCCOc2ccc(F)cc2C(C2CCC2)Nc2ccn3ncc1c3n2 (stereo not drawn) [Example 86, 13-cyclobutyl-11-fluoro-6,7,13,14-tetrahydro-1,15-ethenopyrazolo[4,3-f][1,4,8,10]benzoxatriazacyclotridecin-4(5H)-one] | 1 | 2000 |  |

More lines, main results first:

| IC50 [2] [µM] | SMILES | IC50 [1] [nM] | IC50 [3] [nM] |
| --- | --- | --- | --- |
| 0.329 | C[C@H]1CNC(=O)c2cnn3ccc(nc23)N[C@H](CO)c2cc(F)ccc2O1 [Example 111, (7S,13S)-11-fluoro-13-(hydroxymethyl)-7-methyl-6,7,13,14-tetrahydro-1,15-ethenopyrazolo[4,3-f][1,4,8,10]benzoxatriazacyclotridecin-4(5H)-one] | 2000 | 76 |
| 5.75 | CN1Cc2cc(F)ccc2SCCNC(=O)c2cnn3ccc1nc23 [Example 104, 11-fluoro-14-methyl-6,7,13,14-tetrahydro-1,15-ethenopyrazolo[4,3-f][1,4,8,10]benzothiatriazacyclotridecin-4(5H)-one] | 2350 | 0.3 |
| 0.619 | C[C@H]1CNC(=O)c2cnn3ccc(nc23)CCc2cc(F)ccc2O1 [Example 108, (7S)-11-fluoro-7-methyl-6,7,13,14-tetrahydro-1,15-ethenopyrazolo[4,3-f][1,4,8]benzoxadiazacyclotridecin-4(5H)-one] | 870 | 3.6 |
| 2.3 | O=C1NCCOc2ccc(F)cc2CCc2ccn3ncc1c3n2 [Example 102, 11-fluoro-6,7,13,14-tetrahydro-1,15-ethenopyrazolo[4,3-f][1,4,8]benzoxadiazacyclotridecin-4(5H)-one] | 2450 | 1.2 |
| 5.36 | CC1c2cc(F)ccc2OCCNC(=O)c2cnn3ccc(nc23)N1C (stereo not drawn) [Example 100, 11-fluoro-13,14-dimethyl-6,7,13,14-tetrahydro-1,15-ethenopyrazolo[4,3-f][1,4,8,10]benzoxatriazacyclotridecin-4(5H)-one] | 5830 | 0.6 |
| 0.225 | C[C@H]1COc2ccc(F)cc2[C@@H](C)Nc2ccn3ncc(c3n2)C(=O)N1 [Example 109, (6S,13R)-11-fluoro-6,13-dimethyl-6,7,13,14-tetrahydro-1,15-ethenopyrazolo[4,3-f][1,4,8,10]benzoxatriazacyclotridecin-4(5H)-one] | 398 | 0.86 |
| 0.163 | C[C@@H]1COc2ccc(F)cc2[C@@H](C)Nc2ccn3ncc(c3n2)C(=O)N1 [Example 110, (6R,13R)-11-fluoro-6,13-dimethyl-6,7,13,14-tetrahydro-1,15-ethenopyrazolo[4,3-f][1,4,8,10]benzoxatriazacyclotridecin-4(5H)-one] | 219 | 0.7 |
| > 5 | CN1CCC(N2Cc3cc(F)ccc3OCCNC(=O)c3cnn4ccc2nc34)C1 (stereo not drawn) [Example 105, 11-fluoro-14-(1-methylpyrrolidin-3-yl)-6,7,13,14-tetrahydro-1,15-ethenopyrazolo[4,3-f][1,4,8,10]benzoxatriazacyclotridecin-4(5H)-one] | > 10000 | 500 |
| > 10 | CC(C)(O)CN1Cc2cc(F)ccc2OCCNC(=O)c2cnn3ccc1nc23 [Example 101, 11-fluoro-14-(2-hydroxy-2-methylpropyl)-6,7,13,14-tetrahydro-1,15-ethenopyrazolo[4,3-f][1,4,8,10]benzoxatriazacyclotridecin-4(5H)-one] | 6000 | > 1000 |
| > 10 | CN1Cc2cc(F)ccc2[S+]([O-])CCNC(=O)c2cnn3ccc1nc23 (stereo not drawn) [Example 106, 11-fluoro-14-methyl-6,7,13,14-tetrahydro-1,15-ethenopyrazolo[4,3-f][1,4,8,10]benzothiatriazacyclotridecin-4(5H)-one 8-oxide] | > 10000 | 176 |
| > 10 | CN1Cc2cc(F)ccc2S(=O)(=O)CCNC(=O)c2cnn3ccc1nc23 [Example 107, 11-fluoro-14-methyl-6,7,13,14-tetrahydro-1,15-ethenopyrazolo[4,3-f][1,4,8,10]benzothiatriazacyclotridecin-4(5H)-one 8,8-dioxide] | 3000 | 75.6 |

From patent US10246466B2, “Diaryl macrocycles as modulators of protein kinases” (TP THERAPEUTICS, INC., priority 2014, dated 2019)
